Test results: US20090186949A1, “Method for Treating Endothelial and Epithelial Cell Disorders by Administering High Molecular Weight PEG-Like Compounds” (THE UNIVERSITY OF CHICAGO, priority 2006, published 2009)

How the values were obtained:
[1] = test system: PA-I lectin/adhesin expression in P. aeruginosa; format: cell-based, Pseudomonas aeruginosa
[2] = test system: P. aeruginosa PAO1 and 27853; format: cell-based, Pseudomonas aeruginosa
[3] = test system: human lung microvessel endothelial cells (HLMVEC); test: Transendothelial electrical resistance (TEER) by ECIS, HMW PEG in serum-free EBM; format: cell-based; conditions: TEER
[4] = test system: ERK and MLC phosphorylation; test: ERK and MLC phosphorylation by Western blot; format: cell-based, human; conditions: 1 μM S1P, 5 minutes
HPAECs = test: Intracellular calcium (Fura-2); format: cell-based, human; conditions: 1 U/ml thrombin; 1 μM S1P
Endothelial cells [5] = test: Pretreatment of endothelial cells followed by S1P or HMW PEG challenge (TEER); format: cell-based; conditions: challenge 1 μM S1P or 8% HMW PEG
Endothelial cells [6] = test system: Endothelial cells
P. aeruginosa PAO1 = format: cell-based, Pseudomonas aeruginosa
Caco-2 cells = test: TEER of Caco-2 monolayers inoculated with PA27853 with IFN-γ; format: cell-based
Excerpt: In addition, strains were exposed to apical media from Caco-2 cells basolaterally exposed to one or more of the various epithelial-derived cytokines. Basolateral exposure of Caco-2 cells to the combination of IFN γ and TNF α activates cellular signaling proteins that dramatically alter tight junctional proteins and function. Media from Caco-2 cells exposed to various combinations of these cytokines had no effect on PA-I expression. However, IFN-γ alone induced a direct effect on PA-I expression while none of the other compounds alone had any effect (FIG. 4). […] Using ELISA, immunofluorescence microscopy, and flow cytometry, the binding characteristics of IFNγ were determined for both whole bacteria and membrane fractions of P. aeruginosa. […] These effects were also observed with strain PAO1. […] This protein can also be immunoprecipitated from E. coli (FIG. 6C). Next, IFN-γ binding specificity to whole bacterial cells was determined using reiterative binding studies in the presence of various gram-negative bacterial strains, including P. aeruginosa. […] Finally, in order to determine if PA-I was functionally expressed in PA27853 in the presence IFN-γ, PA27853 was inoculated onto Caco-2 cell monolayers in the presence of IFN-γ and the effect on barrier dysregulating dynamics of PA27853 against this cell line were assessed to determine if IFN-γ shifted the dynamics. […]

[7] = test system: P. aeruginosa (strain PAO1) whole cells and membrane fractions; format: binding, Pseudomonas aeruginosa
OprF = molecular target: T1, OprF (Pseudomonas aeruginosa, UniProt P13794); test: Binding of IFN-γ to purified OprF (ELISA); conditions: dose-dependent
T1 sequence (P13794 25-350): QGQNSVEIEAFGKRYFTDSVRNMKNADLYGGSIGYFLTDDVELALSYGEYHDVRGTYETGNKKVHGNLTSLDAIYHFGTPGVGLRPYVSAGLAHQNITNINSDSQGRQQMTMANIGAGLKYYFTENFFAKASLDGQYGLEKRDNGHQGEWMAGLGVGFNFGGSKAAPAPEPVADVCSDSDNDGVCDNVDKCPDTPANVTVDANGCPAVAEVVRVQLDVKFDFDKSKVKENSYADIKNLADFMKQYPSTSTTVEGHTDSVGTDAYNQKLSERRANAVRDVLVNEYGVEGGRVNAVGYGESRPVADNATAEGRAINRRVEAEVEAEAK

[8] = test system: rhlI / C4-HSL in P. aeruginosa PAO1; test: Quorum sensing activation (rhlI mRNA, C4-HSL in supernatants); format: cell-based, Pseudomonas aeruginosa
[9] = test system: P. aeruginosa PA27853/PLL-EGFP
[10] = test system: human pulmonary artery endothelial cells (HPAEC); test: Reversal of thrombin- or LPS-induced barrier disruption (TEER); format: cell-based; conditions: LPS

C=CCN1C[C@H](C)N([C@H](c2ccc(C(=O)N(CC)CC)cc2)c2cccc(O)c2)C[C@H]1C [BW373U86]
PA-I protein (immunoblot) [1]: induced PA-I protein to the same degree as C4-HSL
biofilm production [2]: especially increased with the δ agonist

CCCCCCCCCCCCC/C=C/[C@@H](O)[C@@H](N)COP(=O)(O)O [S1P, sphingosine 1-phosphate]
time to maximum barrier enhancing effect [3]: 10 to 15 min
increase in resistance (maximum barrier enhancing effect) ([3]; human pulmonary microvessel EC): 40%
ERK phosphorylation [4]: drastic increase in ERK phosphorylation
intracellular calcium on stimulation of ECs (HPAECs): induced intracellular calcium spikes
effect of PMA pretreatment on the response to stimulation (Endothelial cells [5]; pretreated 100 nM PMA 24 hours): Blocked
effect of PTX pretreatment on the response to stimulation (Endothelial cells [5]; pretreated 100 ng/ml PTX 4 hours): Blocked
effect of S1P pretreatment on the response to stimulation (Endothelial cells [5]; pretreated 1 μM S1P 24 hours): No effect
effect of FTY720 pretreatment on the response to stimulation (Endothelial cells [5]; pretreated 10 μM FTY720 24 hours): Blunted
effect of FTY analog pretreatment on the response to stimulation (Endothelial cells [5]; pretreated 10 μM FTY analog 24 hours): Blunted

High Molecular Weight PolyEthylene Glycol [HMW PEG]
exotoxin A-induced cytotoxicity (Endothelial cells [6]): completely protected

IFN-γ: recombinant human interferon gamma, immune cytokine
pyocyanin production (P. aeruginosa PAO1): increased pyocyanin production
PA-I expression in vitro [1]: induced PA-I expression
concentration giving the greatest increase in PA-I protein [1]: 100 ng/mL
induction of PA-I mRNA (Northern blot) [1]: Induction of PA-I mRNA was observed
PA27853-induced decrease in Caco-2 TEER (Caco-2 cells; 5 hour time point, PA27853 alone decreased TEER by 60%): enhanced in the presence of IFN-γ
Caco-2 TEER, IFN-γ alone (Caco-2 cells; without bacteria): Neither media nor IFN-γ alone altered TEER
bacterial cells that bound IFN-γ [7]: 73%±3.2%
binding to P. aeruginosa cells / cell membranes (ELISA) [7]: avidly bound to whole fixed cells of P. aeruginosa in a dose-dependent manner
binding to purified OprF (OprF): purified OprF directly binds human IFN-γ
rhlI transcription (Northern blot) ([8]; PAO1): induced rhlI transcription
C4-HSL synthesis ([8]; PAO1, 100 ng/ml IFN-γ): C4-HSL synthesis was increased
PA-I promoter activity / expression (fluorescence) [9]: Only IFN-γ induced PA-I promoter activity

lipopolysaccharide [LPS]
duration of decrease in barrier resistance [10]: over 20 hours
